No end group written: not given here.

Data set [1] has as its system Staphylococcus aureus, Pseudomonas aeruginosa, methicillin-resistant Staphylococcus aureus and multidrug-resistant Pseudomonas aeruginosa. The data set is described as follows: Bacteria remaining in the blood of infected mice after intravenous injection of the drug. Type of data set: in vivo, mice (C57BL/6). As to conditions: 10 mg/kg intravenous 1 hour after infection; blood 40 minutes after injection; compared with LL-37, magainin 2, daptomycin. As to the method:
Specifically, Staphylococcus aureus, Pseudomonas aeruginosa, methicillin-resistant Staphylococcus aureus and multidrug-resistant Pseudomonas aeruginosa was cultured in 3% (w/v) TSB liquid medium at 37° C. and 200 rpm for 4 hours, and then further cultured under the same conditions for 3 hours to a concentration of 5×10^9 CFU/ml. Strain solutions were prepared by diluting each of the further cultured strains with PBS solution to a final concentration of 1×10^5 CFU/μl.
Next, 100 μl of each strain solution was injected intravenously (IV) into the tail vein of each of 10-week-old male mice (C57BL/6). After one hour, KU-5878 was intravenously injected at a concentration of 10 mg/kg. As a control, PBS was intravenously injected at a concentration of 10 mg/kg, and as a positive control, LL-37, magainin 2, or daptomycin was intravenously injected at a concentration of 10 mg/kg.
40 minutes after the intravenous injection of each drug, about 1 cm from the tail end of each mouse was cut using surgical scissors, and 10 μl of the blood at the end of the cut was collected and diluted in PBS. The diluted blood sample was plated on a previously prepared TSB agar plate and incubated in an incubator at 37° C. for 18 hours, and the formed colonies were counted for comparison.

Data set [2] in a line: Toxicity in vivo (survival and weight after intravenous injection). Further details: species or system mouse (C57BL/6). The note with it: 100 mg/kg intravenous. As for the experimental part: At this time, the maximum volume of the injection dose was 150 μl.
The subject of data set [3] is Enterobacter aerogenes (ATCC 13048). The format is cell-based. As to conditions: ATCC 13048, 4 h. As to the method:
(§1) Specifically, each type of bacteria was cultured in 3% (w/v) TSB (tryptic soy broth) liquid medium at 37° C. and 200 rpm for 4 hours, and then further cultured under the same conditions for 3 hours to a concentration of 5×10^6 CFU/ml. Strain solutions were prepared by diluting each of the further cultured strains with SP buffer to a final concentration of 2×10^5 CFU/ml.
(§2) Then, the KU-5878 peptide at varying concentrations (0 μg/ml to 300 μg/ml) was dispensed into each well of a 96-well microplate, and 100 μl (1×10^5 CFU/ml) of each of the prepared strain solutions was added thereto, mixed therewith, and allowed to react with the peptide in an incubator at 37° C. for 1 hour.
(§3) In addition, 10 μl of each reaction solution of the peptide and the strain was plated on the TS agar plate at a constant size, and incubated in an incubator at 37° C. for 18 hours, and then colony formation on the plate was checked. The minimum bactericidal concentration was defined as the minimum concentration of the peptide at which no colony was formed, and the experimental results are shown in Table 2 below.

The subject of data set [4] is Enterococcus faecalis (ATCC 19433). The format is cell-based. As to conditions: ATCC 19433, 4 h. As for the experimental part: as §1, §2, §3
Data set [5] has as its system Bacillus subtilis (ATCC 6633). Type of data set: cell-based. The note with it: ATCC 6633, 4 h. As to the method:
as §1, §2, §3

The test system of data set [6] is Streptomyces sindenensis (ATCC 12392). Type of data set: cell-based. The note with it: ATCC 12392, 4 h. As for the experimental part: as §1, §2, §3
Data set [7] concerns Escherichia coli (ATCC 25922). Type of data set: cell-based. As to conditions: ATCC 25922, 4 h. As for the experimental part:
as §1, §2, §3

In data set [8] the test system is Acinetobacter baumannii (ATCC 19606). The format is cell-based. The note with it: ATCC 19606, 4 h. As to the method: as §1, §2, §3
The test system of data set [9] is Enterococcus faecium (ATCC 19434). The format is cell-based. As to conditions: ATCC 19434, 4 h. As to the method:
as §1, §2, §3

The test system of data set [10] is Klebsiella pneumoniae (ATCC 13883). Type of data set: cell-based. The note with it: ATCC 13883, 4 h. As for the experimental part:
as §1, §2, §3

The subject of data set [11] is Staphylococcus aureus, Pseudomonas aeruginosa, Klebsiella pneumoniae and Acinetobacter baumannii. The data set is described as follows: Survival rate of mice injected with gram-positive or gram-negative bacteria. As to conditions: mice injected with gram-positive or gram-negative bacteria (FIG. 3). Type of data set: in vivo, mice (C57BL/6). An excerpt: Following Example 2-2, in order to evaluate the antibacterial activity of the KU-5878 peptide in vivo, Staphylococcus aureus as gram-positive bacteria, Pseudomonas aeruginosa, Klebsiella pneumoniae and Acinetobacter baumannii as gram-negative bacteria, and multidrug-resistant Pseudomonas aeruginosa, methicillin-resistant Staphylococcus aureus, multidrug-resistant Klebsiella pneumoniae and multidrug-resistant Acinetobacter baumannii as multidrug-resistant bacteria were selected, and the following experiment was performed.
The experimental method is as described in Example 2-2 above. For a positive group, each type of the bacteria was injected into mice, and after 24 hours, 30 mg/kg of imipenem, a carbapenem-based antibiotic, was injected intraperitoneally (IP), and then the same amount of imipenem was administered intraperitoneally a total of 4 times at 12-hour intervals. The survival rates of each control group and the experimental group were measured at 24-hour intervals.

Data set [12] relates to Methicillin-resistant Staphylococcus aureus (MRSA, ATCC 33591). In words: Minimum bactericidal concentration (MBC) assay. Type of data set: cell-based. The note with it: Tables 11-21, no unit printed. The gist of the method:
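Peptide at 0 to 300 μg/ml reacted 1 h at 37 °C with 1×10^5 CFU/ml bacteria in SP buffer (10 mM sodium phosphate, 1% TSB), bacteria pre-grown in 3% TSB. Aliquots then spread on TS agar and checked for colonies after 18 h at 37 °C.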

For data set [13], the system named is CRPA. In words: Minimum bactericidal concentration (MBC) assay. The format is cell-based. The note with it: Tables 11-21, no unit printed.

For KTMMQSGGTFGTFMAIGMGIR [KU-5878], the “number of bacteria remaining in the blood vessels of the mice” value in data set [1] is “most greatly decreased”. Moreover, the “effect on the weight of the mice” value in data set [2] (24-hour intervals for 12 days) was “no effect on the weight”. Also, the “survival of mice after injection” value in [2] (observed 12 days) is “all survived”. Moreover, the “MBC value” stood at 90 µg/mL in data set [3]; 85 µg/mL in data set [4]; 90 µg/mL in [5]; 95 µg/mL in data set [6]; 85 µg/mL in data set [7]; 100 µg/mL in [8]. The “MBC value” in data set [9] worked out at 85 µg/mL; in data set [10], 100 µg/mL. In data set [11], this sequence showed a survival rate of 60%. The MBC MRSA in data set [12] came out at 110 µg/mL; in [12] (listed as 5878), 100 µg/mL. The sequence also gave an MBC CRPA in data set [13] of 110 µg/mL.

The values are drawn from US12115209B2, “ROMO1-derived antimicrobial peptides including lysine substitution and variants thereof” (KOREA UNIVERSITY RESEARCH AND BUSINESS FOUNDATION, priority 2019, dated 2024).
